According to patent publication US20230131966A1, “FUNGICIDAL AMIDES” (FMC Corporation, priority 2020, published 2023):

Key:
Format in all cases: in vivo
Zymoseptoria tritici = assay: Test C: wheat leaf blotch control on wheat seedlings; details: wheat seedlings, 100 = 100% disease control, 0 = no control
[1] = test system: Puccinia recondita f. sp. tritici; assay: Test B: wheat leaf rust control on wheat seedlings; details: wheat seedlings, 100 = 100% disease control, 0 = no control
Botrytis cinerea = assay: Test E: tomato Botrytis control on tomato seedlings; details: 100 = 100% disease control, 0 = no control
Phytophthora infestans = assay: whole plant or invertebrate; details: tomato seedlings, 100 = 100% disease control, 0 = no control
Phakopsora pachyrhizi = assay: Test A: Asian soybean rust control on soybean seedlings; details: soybean seedlings, 100 = 100% disease control, 0 = no control
[2] = test system: Erysiphe graminis f. sp. tritici; assay: Test G: wheat powdery mildew control on wheat seedlings; details: 100 = 100% disease control, 0 = no control
Plasmopara viticola = assay: Test D: grape downy mildew control on grape seedlings; details: 100 = 100% disease control, 0 = no control

SMILES	Test C disease control rating (Zymoseptoria tritici; 250 ppm) [%]	Test B disease control rating ([1]; 250 ppm) [%]	Test E disease control rating (Botrytis cinerea; 250 ppm) [%]	Test F disease control rating (Phytophthora infestans; 250 ppm) [%]	Test A disease control rating (Phakopsora pachyrhizi; 250 ppm) [%]	Test G disease control rating ([2]; 250 ppm) [%]	Test D disease control rating (Plasmopara viticola; 250 ppm) [%]	Test C disease control rating (Zymoseptoria tritici; 50 ppm) [%]	Test B disease control rating ([1]; 50 ppm) [%]	Test E disease control rating (Botrytis cinerea; 50 ppm) [%]	Test F disease control rating (Phytophthora infestans; 50 ppm) [%]	Test A disease control rating (Phakopsora pachyrhizi; 50 ppm) [%]	Test G disease control rating ([2]; 50 ppm) [%]	Test D disease control rating (Plasmopara viticola; 50 ppm) [%]
CCC(OC(=O)[C@H](C)NC(=O)c1nccc(OC)c1OCOC(=O)C(C)C)c1ccc(C2CCCCC2)cc1 (single isomer, unassigned) [Compound 132]	30	68	0	0	75	0	29							
COc1ccnc(C(=O)NC(C)C(=O)N(C)C(C)c2ccc(C3CCCCC3)cc2)c1O (mixture of isomers) [Compound 98]	59	0	0	0	89	0	71							
CCOC(=O)c1ccn(-c2ccc(C(C)OC(=O)C(C)NC(=O)c3nccc(OC)c3O)cc2)n1 (mixture of isomers) [Compound 49]	0	41	0	0	97	0	17							
COc1ccnc(C(=O)NC(C)C(=O)OC(C)c2ccc(C3CCCC3)cc2)c1OC(C)=O (mixture of isomers) [Compound 64]								13	99	0	0	100	0	86
